US12252493B2, “Imidazo[1,2-c]pyrimidine derivatives as PRC2 inhibitors for treating cancer” (Mirati Therapeutics, Inc., priority 2019, dated 2025)
Like-named read-outs stand apart in the source and are kept apart here.

What was measured:
[1] = tested on: PRC2-mediated histone H3 methylation (H3 Lys27 trimethylation) in Pfeiffer cells expressing mutant EZH2 (A677G); assay: Tri-Methyl Histone H3 (Lys 27) sandwich ELISA in Pfeiffer cells; assay type: cell-based, human; settings: read-out: IC50, Inhibition of EZH2-mediated Histone H3 Trimethylation
Text: The Pfeiffer cell line was established from a […] from a patient having metastatic diffuse large B-cell lymphoma (DLBCL). This cell line expresses a mutant form of the EZH2 enzyme (A677G) that results in enhanced EZH2 activity leading to increased methylation of histone H3 Lys27. Increased trimethylation of histone H3 Lys27 is believed to be implicated in tumorgenesis and poor clinical prognosis in lymphomas (McCabe et al., (2012) Nature 492:108-112).
Inhibition of PRC2-mediated histone H3 methylation by compounds of Formula (I) was measured by ELISA using a Tri-Methyl Histone H3 (Lys 27) Sandwich ELISA Kit (Cell Signaling Tech #7866C) in accordance with the manufacturer's instructions. Briefly, Pfeiffer cells were cultured in RPMI medium supplemented with 10% fetal bovine serum and 1% penicillin and 1% streptomycin in 96 well culture plates at 37° C. to a density of 8000 cells/90 μl/well and the cells were harvested. A series of 3-fold serial dilutions of each test compound of Formula (I) were prepared in RPMI medium and added to the cells at final concentrations ranging from 1 μM to 0.15 nM. The plates were incubated at 37° C. for 96 hours.
After incubation, the cells were pelleted by centrifugation in a pre-cooled 4° C. rotor at 1,100 rpm for 10 min and the supernatant was removed by aspiration. The cell pellet was resuspended in 55 μl of Lysis Buffer (0.4M HCl) and incubated on ice with periodic shaking for 30 minutes. The lysed cells were subjected to centrifugation at 4,200 rpm for 10 min at 4° C. and the supernatant containing acid-soluble proteins was collected and the remainder discarded. The acid-soluble proteins were brought to a neutral pH by the addition of 20 μl of Neutralization Buffer (1 M Sodium phosphate, dibasic (pH 12.5), 2.5 mM DTT and 1 mM PMSF) and the neutralized lysates were analyzed by ELISA.
A 65 μl aliquot of each cell lysate was added to a well of a microwell strip, the microwells were sealed using tape and incubated either at 37° C. for two hours or at 4° C. overnight. After incubation, the tape was removed at the microwells were washed four times using 200 μl of 1× Wash Buffer. To each washed microwell, a 100 μl aliquot of an anti-trimethyl histone H3 Lys27 Detection Antibody solution was added and the microwells were incubated at 37° C. for one hour. The Detection Antibody solution was removed by aspiration and the wells were washed four times each using 200 μl of 1× Wash Buffer.
A 100 μl aliquot of an HRP-linked secondary antibody was added to each well, the wells were sealed with tape and incubated at 37° C. for 30 min. The HRP-linked secondary antibody solution was removed by aspiration and the wells were washed four times using 200 μl of 1× Wash Buffer. A 100 μl aliquot of a TMB substrate was added to each well, the wells were sealed with tape and incubated at 37° C. for 10 min or 25° C. for 30 min. The reaction was stopped by the addition of 100 μl aliquot of a STOP solution and the plate was shaken briefly. The degree of histone H3 trimethylation was determined using a spectrophotometric readout by measuring the absorbance at 450 nm and then calculating the amount of trimethylated histone H3. Key: A=≤250 nM; B=>250 nM-≤500 nM; and C=>500 nM-≤5 μM.

[2] = target: purified human, His-tagged PRC2 complex (Homo sapiens (Human), UniProt O75530); assay: Hot Spot HMT assay of PRC2 enzymatic activity (tritiated methyl transfer from SAM to core histone); assay type: biochemical; settings: 10 nM purified PRC2 complex, 0.05 mg/ml core histone H3, 1 uM 3H-SAM, 1 hr at 30° C.
Protocol: Ten-point dose-response curves for compounds of the present invention were determined using a Hot Spot HMT assay (Reaction Biology Corp; see Horiuchi et al., Assay Drug Dev Technol. (2013) 4: 227-236 doi: 10.1089/adt.2012.480). The assay uses purified human, His-tagged PRC2 complex, including N-terminal His-tagged EZH2 enzyme, N-terminal Flag-tagged embryonic ectoderm development protein (EED), N-terminal His-tagged suppressor of zeste 12 (SUZ12), N-terminal His-tagged AEBP2, and N-terminal His-tagged RbAp48. In this assay, the transfer of the tritiated methyl group from radiolabeled S-adenosyl methionine (SAM) to purified core histone protein by EZH2 is quantitated after filtration to determine the activity of the core PRC2 complex in the presence and absence of compound.
Briefly, compounds of the present invention were solubilized in DMSO and a series of 10, three-fold serial dilutions were made for each compound in 15% DMSO. The initial starting concentration for the serial dilutions of each compound was 1.0 μM. Control samples lacking compound, EZH2 enzyme or various reaction components also were prepared and processed in parallel with compound test samples. SAH (S-(5-adenosyl)-L-homocysteine) was used as a positive control for assay validation.
An aliquot of each serial dilution of test compound was added to deep 384 well plate using Acoustic Technology instrument (Echo 550, LabCyte) containing reaction buffer (50 mM Tris-HCl (pH 8.)), 0.01% Brij35, 1 mM EDTA, 1 mM DTT, 1 mM PMSF and 1% DMSO), 10 nM purified PRC2 complex and 0.05 mg/ml core histone H3 in a 5 μl volume. The reaction was mixed gently and then pre-incubated for 20 min at 30° C. The enzymatic reaction was initiated by adding 1 uM S-Adenosyl-L-[methyl ^3H]methionine and incubated for 1 hr at 30° C. After 1 hr, the reaction product was detected using a filter binding method and the amount of tritiated H3 core histone was quantitated using a scintillation counter. The IC50 value for each compound was determined from each 10-point dose-response curve using GraphPad Prism software and the results for exemplary compounds of Formula (I) are shown in Table 5. Key: A=≤250 nM; B=>250 nM—≤500 nM; and C=>500 nM—≤2 μM.

[3] = tested on: Karpas 422 cells expressing mutant EZH2 (Y641N); assay: Karpas 422 cell viability (Cell Titre Glo) assay; assay type: cell-based, human; settings: CTG viability, time point (Day 4, Day 7 or Day 11) not given, read-out: IC50, Inhibiting Proliferation of Cells Expressing an Activating Mutant Form of EZH2
Protocol: Karpas 422 cell line is a human B cell non-Hodgkin's lymphoma cell line established from a patient having DLBCL. This EZH2 heterozygotic cell line expresses a mutant form of EZH2 enzyme (Y641N) that increases histone H3 methylation and this mutation has been implicated in the tumorgenesis of lymphomas, such as DLBCL.
Karpas 422 cells (PHE cat no., 06101702) were cultured in RPMI medium supplemented with 20% fetal bovine serum and 1% penicillin/1% streptomycin and plated at a density of 1000 cells/90 μl/well in 96 well white assay plates. A dose response curve for compounds of the present invention was determined by adding a 10 μl aliquot of stock solutions of varying concentrations of compounds to the same medium in each well, over a concentration range of 10 μM using 3-fold dilutions to a final concentration of 1.5 nM. The plates were incubated at 37° C. for predetermined time periods, Day 4, Day 7, or Day 11, and the viability of the cells was measured using a CTG assay kit (Cell Titre Glo; Promega cat. no G7573) on Day 4 and Day 7 in accordance with the manufacturer's instructions.
For the viability assay for the Day 11 plates, the plates were subjected to centrifugation at 1100 rpm for five minutes on Day 7 and the supernatant was removed by aspiration. The cells were resuspended in 90 μl aliquot of the appropriate growth medium lacking the compound followed by addition of 10 μl of a 10× stock of the same compound at the same concentration. The viability of the Day 11 cells was measured using the CTG assay kit described above in accordance with the manufacturer's instructions. The IC50 values for each compound at each predetermined time point were calculated using Graph pad PRISM software and the results are shown in Table 7. Key: A=≤250 nM; B=>250 nM-≤500 nM; C=>500 nM-≤5 μM and N.D.=not determined.

[4] = Homo sapiens, Pfeiffer cells, 96 hours incubation, ELISA
[5] = read-out: IC50, Inhibition of PRC2-mediated Enzymatic Activity

Chain of purified human, His-tagged PRC2 complex (Q15910 whole entry): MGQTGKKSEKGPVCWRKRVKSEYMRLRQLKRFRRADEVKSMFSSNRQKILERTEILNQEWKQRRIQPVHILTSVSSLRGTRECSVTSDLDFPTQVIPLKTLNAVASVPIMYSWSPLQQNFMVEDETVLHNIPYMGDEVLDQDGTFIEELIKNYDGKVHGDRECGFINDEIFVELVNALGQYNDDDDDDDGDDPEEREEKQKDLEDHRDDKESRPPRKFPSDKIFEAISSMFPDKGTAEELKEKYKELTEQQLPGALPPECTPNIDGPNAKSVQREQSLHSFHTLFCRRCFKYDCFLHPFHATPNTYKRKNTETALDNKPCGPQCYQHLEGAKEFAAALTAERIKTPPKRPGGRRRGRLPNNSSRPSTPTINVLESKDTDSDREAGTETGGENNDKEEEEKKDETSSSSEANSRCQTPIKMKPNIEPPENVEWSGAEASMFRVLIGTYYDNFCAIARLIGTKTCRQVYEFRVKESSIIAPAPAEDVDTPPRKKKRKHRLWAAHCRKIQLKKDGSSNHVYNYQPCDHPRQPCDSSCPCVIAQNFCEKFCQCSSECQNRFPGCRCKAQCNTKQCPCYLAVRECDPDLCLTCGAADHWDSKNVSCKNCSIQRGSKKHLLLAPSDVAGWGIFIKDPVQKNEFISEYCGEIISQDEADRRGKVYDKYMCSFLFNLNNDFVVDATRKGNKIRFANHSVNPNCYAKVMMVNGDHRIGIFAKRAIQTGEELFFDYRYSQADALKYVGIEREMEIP
Chain of purified human, His-tagged PRC2 complex (O75530 whole entry): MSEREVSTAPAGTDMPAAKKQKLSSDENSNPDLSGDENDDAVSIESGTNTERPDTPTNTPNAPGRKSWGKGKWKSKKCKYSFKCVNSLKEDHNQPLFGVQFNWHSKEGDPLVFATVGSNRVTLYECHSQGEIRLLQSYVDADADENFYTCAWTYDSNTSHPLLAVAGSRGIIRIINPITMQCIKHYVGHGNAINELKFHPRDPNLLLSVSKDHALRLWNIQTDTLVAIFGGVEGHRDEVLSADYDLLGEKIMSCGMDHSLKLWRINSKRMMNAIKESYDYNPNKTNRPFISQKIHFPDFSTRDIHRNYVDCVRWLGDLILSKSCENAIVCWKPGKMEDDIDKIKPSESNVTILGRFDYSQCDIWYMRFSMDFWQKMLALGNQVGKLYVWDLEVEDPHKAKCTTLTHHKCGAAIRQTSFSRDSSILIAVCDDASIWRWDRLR
Chain of purified human, His-tagged PRC2 complex (Q15022 whole entry partner): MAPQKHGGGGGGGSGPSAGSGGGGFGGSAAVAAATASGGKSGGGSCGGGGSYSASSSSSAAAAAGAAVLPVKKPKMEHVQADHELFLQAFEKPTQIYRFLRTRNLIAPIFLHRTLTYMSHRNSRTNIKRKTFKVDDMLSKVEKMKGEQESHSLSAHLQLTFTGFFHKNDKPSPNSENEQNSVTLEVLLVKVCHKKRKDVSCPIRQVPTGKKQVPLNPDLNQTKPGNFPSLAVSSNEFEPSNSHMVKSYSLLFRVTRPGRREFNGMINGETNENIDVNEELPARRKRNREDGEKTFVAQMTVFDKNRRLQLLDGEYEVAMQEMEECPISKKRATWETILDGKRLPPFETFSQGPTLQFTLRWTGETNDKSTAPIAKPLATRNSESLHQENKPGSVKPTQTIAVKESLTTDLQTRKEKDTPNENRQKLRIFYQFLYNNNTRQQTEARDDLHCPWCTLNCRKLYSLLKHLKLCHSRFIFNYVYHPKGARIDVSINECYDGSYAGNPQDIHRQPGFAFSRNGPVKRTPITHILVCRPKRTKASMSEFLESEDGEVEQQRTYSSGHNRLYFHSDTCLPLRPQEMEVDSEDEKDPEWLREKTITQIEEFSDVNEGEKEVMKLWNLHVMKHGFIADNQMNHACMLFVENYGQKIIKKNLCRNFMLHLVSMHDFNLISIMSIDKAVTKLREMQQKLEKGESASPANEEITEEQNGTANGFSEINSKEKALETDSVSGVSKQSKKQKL
Chain of purified human, His-tagged PRC2 complex (Q6ZN18 whole entry partner): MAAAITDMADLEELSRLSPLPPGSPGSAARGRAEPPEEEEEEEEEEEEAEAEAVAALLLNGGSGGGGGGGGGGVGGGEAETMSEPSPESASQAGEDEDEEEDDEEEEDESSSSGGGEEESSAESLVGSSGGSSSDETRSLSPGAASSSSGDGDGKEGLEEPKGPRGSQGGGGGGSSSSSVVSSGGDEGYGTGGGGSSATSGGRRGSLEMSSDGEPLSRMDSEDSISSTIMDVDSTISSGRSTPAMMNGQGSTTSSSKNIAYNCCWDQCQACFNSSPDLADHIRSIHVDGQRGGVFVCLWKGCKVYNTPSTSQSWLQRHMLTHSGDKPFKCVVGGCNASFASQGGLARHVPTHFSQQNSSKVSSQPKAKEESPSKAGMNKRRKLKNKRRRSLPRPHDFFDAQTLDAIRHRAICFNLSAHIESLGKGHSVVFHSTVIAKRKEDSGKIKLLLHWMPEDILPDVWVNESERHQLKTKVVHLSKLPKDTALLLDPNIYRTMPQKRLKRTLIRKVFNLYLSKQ
Chain of purified human, His-tagged PRC2 complex (Q09028 whole entry partner): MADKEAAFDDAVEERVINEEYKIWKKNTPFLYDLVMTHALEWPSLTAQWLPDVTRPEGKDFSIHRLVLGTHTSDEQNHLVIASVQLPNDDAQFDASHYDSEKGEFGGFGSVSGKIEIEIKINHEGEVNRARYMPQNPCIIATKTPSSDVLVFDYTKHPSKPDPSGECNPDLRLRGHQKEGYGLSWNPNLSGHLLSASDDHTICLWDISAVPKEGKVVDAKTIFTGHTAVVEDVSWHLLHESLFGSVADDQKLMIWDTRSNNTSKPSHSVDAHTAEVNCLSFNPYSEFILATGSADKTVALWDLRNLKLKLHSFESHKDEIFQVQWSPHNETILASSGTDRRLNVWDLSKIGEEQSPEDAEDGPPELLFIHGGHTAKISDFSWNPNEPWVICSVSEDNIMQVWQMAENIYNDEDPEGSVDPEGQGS

Compound	IC50 [1, 4] [µM]	IC50 [2, 5] [µM]	IC50 ([3]; Homo sapiens) [µM]	IC50 ([1]; Homo sapiens, Pfeiffer, 96 h) [µM]	IC50 ([2]; IC50, Inhibition of PRC2-mediated Enzymatic Activity) [µM]	IC50 ([1]; Pfeiffer cells, 96 hours incubation, ELISA) [µM]	IC50 [3] [µM]
NCc1cn2c(NCc3c(F)ccc4c3CCO4)ncc(-c3ccccc3Cl)c2n1 [Example 22, 2-(aminomethyl)-8-(2-chlorophenyl)-N-((5-fluoro-2,3-dihydrobenzofuran-4-yl)methyl)imidazo[1,2-c]pyrimidin-5-amine]	0.5 to 5	0.5 to 2	0.5 to 5	–	–	–	–
Cc1cc(-c2cnc(NCc3cccc4c3CCO4)n3cc(CN)nc23)n(C)n1 [Example 23, 2-(aminomethyl)-N-((2,3-dihydrobenzofuran-4-yl)methyl)-8-(1,3-dimethyl-1H-pyrazol-5-yl)imidazo[1,2-c]pyrimidin-5-amine]	0.5 to 5	0.5 to 2	0.5 to 5	–	–	–	–
Cc1cc(-c2cnc(NCc3c(F)ccc4occc34)n3cc(CN)nc23)n(C)n1 [Example 24]	0.25 to 0.5	0.5 to 2	0.25 to 0.5	–	–	–	–
Cc1cc(-c2cnc(NCc3c(F)ccc4c3CCO4)n3cc(CNCCS(=O)(=O)F)nc23)n(C)n1 [Example 27, 2-(((8-(1,3-dimethyl-1H-pyrazol-5-yl)-5-(((5-fluoro-2,3-dihydrobenzofuran-4-yl)methyl)amino)imidazo[1,2-c]pyrimidin-2-yl)methyl)amino)ethane-1-sulfonyl fluoride]	–	–	0.5 to 5	0.5 to 5	0.5 to 2	–	–
Cc1cc(-c2cnc(NCc3c(F)ccc4c3CCO4)n3cc(CN(CCS(=O)(=O)F)CCS(=O)(=O)F)nc23)n(C)n1 [Example 28, 2,2′-(((8-(1,3-dimethyl-1H-pyrazol-5-yl)-5-(((5-fluoro-2,3-dihydrobenzofuran-4-yl)methyl)amino)imidazo[1,2-c]pyrimidin-2-yl)methyl)azanediyl)bis(ethane-1-sulfonylfluoride)]	–	0.5 to 2	–	–	–	0.5 to 5	0.5 to 5
Cn1nccc1-c1cnc(NCc2c(F)ccc3c2CCO3)n2cc(CN3CCC3)nc12 [Example 29, 2-(azetidin-1-ylmethyl)-N-((5-fluoro-2,3-dihydrobenzofuran-4-yl)methyl)-8-(1-methyl-1H-pyrazol-5-yl)imidazo[1,2-c]pyrimidin-5-amine]	0.5 to 5	0.5 to 2	0.5 to 5	–	–	–	–
Cc1cc(S(C)(=O)=O)ccc1-c1cnc(NCc2c(F)ccc3c2CCO3)n2cc(C(C)N)nc12 (stereo not drawn) [Example 34, 2-(1-aminoethyl)-N-((5-fluoro-2,3-dihydrobenzofuran-4-yl)methyl)-8-(2-methyl-4-(methylsulfonyl)phenyl)imidazo[1,2-c]pyrimidin-5-amine]	< 0.25	< 0.25	< 0.25	–	–	–	–

The next lines start with results.

IC50 [1, 4] [µM]	IC50 [2, 5] [µM]	IC50 ([3]; Homo sapiens) [µM]	Compound	IC50 ([1]; Homo sapiens, Pfeiffer, 96 h) [µM]	IC50 ([2]; IC50, Inhibition of PRC2-mediated Enzymatic Activity) [µM]	IC50 ([1]; Pfeiffer cells, 96 hours incubation, ELISA) [µM]	IC50 [3] [µM]
0.25 to 0.5	0.5 to 2	< 0.25	Cc1cc(-c2cnc(NCc3c(F)ccc4c3CCO4)n3cc(CNC4CCC4)nc23)n(C)n1 [Example 30, 2-((cyclobutylamino)methyl)-8-(1,3-dimethyl-1H-pyrazol-5-yl)-N-((5-fluoro-2,3-dihydrobenzofuran-4-yl)methyl)imidazo[1,2-c]pyrimidin-5-amine]	–	–	–	–
0.5 to 5	0.5 to 2	0.5 to 5	Cc1cc(-c2cnc(NCc3c(F)ccc4c3CCO4)n3cc(CN4CC(O)C4)nc23)n(C)n1 [Example 31, 1-((8-(1,3-dimethyl-1H-pyrazol-5-yl)-5-(((5-fluoro-2,3-dihydrobenzofuran-4-yl)methyl)amino)imidazo[1,2-c]pyrimidin-2-yl)methyl)azetidin-3-ol]	–	–	–	–
0.25 to 0.5	0.5 to 2	< 0.25	Cc1cc(-c2cnc(NCc3c(F)ccc4c3CCO4)n3cc(CNCc4ccccc4)nc23)n(C)n1 [Example 32, 2-((benzylamino)methyl)-8-(1,3-dimethyl-1H-pyrazol-5-yl)-N-((5-fluoro-2,3-dihydrobenzofuran-4-yl)methyl)imidazo[1,2-c]pyrimidin-5-amine]	–	–	–	–
0.25 to 0.5	0.5 to 2	0.25 to 0.5	Cc1cc(-c2cnc(NCc3c(F)ccc4c3CCO4)n3cc(CNC4CC4)nc23)n(C)n1 [Example 33, 2-((cyclopropylamino)methyl)-8-(1,3-dimethyl-1H-pyrazol-5-yl)-N-((5-fluoro-2,3-dihydrobenzofuran-4-yl)methyl)imidazo[1,2-c]pyrimidin-5-amine]	–	–	–	–
